# Patent publication US20160367623A1, “AGONISTS OF GUANYLATE CYCLASE USEFUL FOR THE TREATMENT OF GASTROINTESTINAL DISORDERS, INFLAMMATION, CANCER AND OTHER DISORDERS” (priority 2015, published 2016)
# Bridge positions count the residues as written; N and C are the ends. Ends that are not written are not given here.
# Tests used:
# [1] = system: patients with chronic idiopathic constipation (CIC); test: First phase 3 CIC trial: durable overall CSBM responders (primary endpoint); type: in vivo, human; set-up: Odds Ratio (adjusted), durable overall CSBM responders: reference not given here; settings: for Non-Responders, % / Durable Overall CSBM Responders, %: ITT; for Durable Overall CSBM Responders, %: MRA; for proportion of durable overall responders: 12-week treatment, intention-to-treat population, placebo 10.2%; for Odds Ratio (adjusted), durable overall CSBM responders / Difference in Proportions (adjusted), responders minus placebo: adjusted for gender; for Odds Ratio (adjusted), durable overall CSBM responders: CMH
# Text: (§1) Both trials include a two-week pre-treatment baseline period, a 12-week treatment period, and a two-week post-treatment period. The phase 3 CIC program was designed to support regulatory submission in the U. S.
# (§2) The primary endpoint for both trials is the proportion of durable overall responders (%), which is the current regulatory endpoint required for U.S. approval in CIC. The FDA has defined a durable overall responder as a patient who fulfills both ≧3 complete spontaneous bowel movements (CSBMs) per week plus an increase of ≧1 CSBM from baseline in the same week, for 9 out of the 12 treatment weeks. In addition, the same patient must be an overall responder for at least 3 of the last 4 treatment weeks in order to be considered a durable overall responder.
# (§3) Patients were selected using Rome 3 criteria modified for CIC and had (1) fewer than 3 defecations per week, (2) loose stools occurring rarely without laxatives, (3) inadequate criteria for irritable bowel syndrome with constipation (IBS-C), and (4) at least two of the following applied to at least 25% of defecations: (a) straining during evacuation, (b) lumpy or hard stools, (c) sensation of anorectal obstruction or blockage. Rome 3 requires patients to fulfill the criteria for the last 3 months with symptom onset at least 6 months prior to diagnosis.
# [2] = system: patients with chronic idiopathic constipation (CIC); test: Second phase 3 CIC trial: durable overall CSBM responders; type: in vivo, human; settings: MRA; for Difference in Proportions (adjusted), durable overall CSBM responders / Odds Ratio (adjusted), durable overall CSBM responders: adjusted for gender
# Text: as §1, §2, §3
# [3] = system: patients with chronic idiopathic constipation (CIC); test: Second phase 3 CIC trial: patient disposition, reasons for discontinuation; settings: All Randomized
# [4] = system: patients with chronic idiopathic constipation (CIC); test: First phase 3 CIC trial: treatment emergent adverse events, safety
# [5] = Active Combined (N = 877), ITT Population-Excluding Duplicate Patients
# [6] = Active Combined (N = 892), ITT Population
# [7] = Active Combined (N = 941), All Randomized (includes Duplicate Patients)
# [8] = Plecanatide 3 mg (N = 434), ITT Population-Excluding Duplicate Patients
# [9] = Plecanatide 3 mg (N = 443), ITT Population
# [10] = Plecanatide 3 mg (N = 470), All Randomized (includes Duplicate Patients)
# [11] = Plecanatide 6 mg (N = 443), ITT Population-Excluding Duplicate Patients
# [12] = Plecanatide 6 mg (N = 449), ITT Population
# [13] = Plecanatide 6 mg (N = 471), All Randomized (includes Duplicate Patients)
substance,measurement,setting,value
"Asn^1-Asp^2-Glu^3-Cys^4-Glu^5-Leu^6-Cys^7-Val^8-Asn^9-Val^10-Ala^11-Cys^12-Thr^13-Gly^14-Cys^15-Leu^16 (NDECELCVNVACTGCL; disulfide 4-12, 7-15) [Plecanatide]","Non-Responders, %",[1]; 3 mg (N = 453),79.0%
same,"Durable Overall CSBM Responders, %",[1]; 3 mg (N = 453),21.0%
same,proportion of durable overall responders,[1]; 3.0 mg once-a-day,21.0%
same,"Odds Ratio (adjusted), durable overall CSBM responders",[1]; 3 mg vs placebo,0.429
same,"Difference in Proportions (adjusted), responders minus placebo",[1]; 3 mg,0.107
same,"Non-Responders, %",[1]; 6 mg (N = 441),80.5%
same,"Durable Overall CSBM Responders, %",[1]; 6 mg (N = 441),19.5%
same,proportion of durable overall responders,[1]; 6.0 mg once-a-day,19.5%
same,"Odds Ratio (adjusted), durable overall CSBM responders",[1]; 6 mg vs placebo,0.469
same,"Difference in Proportions (adjusted), responders minus placebo",[1]; 6 mg,0.094
same,"Non-Responders, %",[1]; Active Combined (N = 894),79.8%
same,"Durable Overall CSBM Responders, %",[1]; Active Combined (N = 894),20.2%
same,"Durable Overall CSBM Responders, %",[2]; [5],20.4%
same,"Non-Responders, %",[2]; [5],79.6%
same,"Durable Overall CSBM Responders, %",[2]; [6],20.1%
same,"Non-Responders, %",[2]; [6],79.9%
same,"Durable Overall CSBM Responders, %",[2]; [7],19.7%
same,"Non-Responders, %",[2]; [7],80.3%
same,"Durable Overall CSBM Responders, %",[2]; [8],20.5%
same,"Non-Responders, %",[2]; [8],79.5%
same,"Durable Overall CSBM Responders, %",[2]; [9],20.1%
same,"Non-Responders, %",[2]; [9],79.9%
same,"Durable Overall CSBM Responders, %",[2]; [10],19.8%
same,"Non-Responders, %",[2]; [10],80.2%
same,"Difference in Proportions (adjusted), durable overall CSBM responders","[2]; Plecanatide 3 mg minus Placebo, All Randomized (includes Duplicate Patients)",0.076
same,"Difference in Proportions (adjusted), durable overall CSBM responders","[2]; Plecanatide 3 mg minus Placebo, ITT Population",0.073
same,"Difference in Proportions (adjusted), durable overall CSBM responders","[2]; Plecanatide 3 mg minus Placebo, ITT Population-Excluding Duplicate Patients",0.075
same,"Odds Ratio (adjusted), durable overall CSBM responders","[2]; Plecanatide 3 mg, All Randomized (includes Duplicate Patients)",0.562
same,"Odds Ratio (adjusted), durable overall CSBM responders","[2]; Plecanatide 3 mg, ITT Population",0.586
same,"Odds Ratio (adjusted), durable overall CSBM responders","[2]; Plecanatide 3 mg, ITT Population-Excluding Duplicate Patients",0.583
same,"Durable Overall CSBM Responders, %",[2]; [11],20.3%
same,"Non-Responders, %",[2]; [11],79.7%
same,"Durable Overall CSBM Responders, %",[2]; [12],20.0%
same,"Non-Responders, %",[2]; [12],80.0%
same,"Durable Overall CSBM Responders, %",[2]; [13],19.5%
same,"Non-Responders, %",[2]; [13],80.5%
same,"Difference in Proportions (adjusted), durable overall CSBM responders","[2]; Plecanatide 6 mg minus Placebo, All Randomized (includes Duplicate Patients)",0.074
same,"Difference in Proportions (adjusted), durable overall CSBM responders","[2]; Plecanatide 6 mg minus Placebo, ITT Population",0.072
same,"Difference in Proportions (adjusted), durable overall CSBM responders","[2]; Plecanatide 6 mg minus Placebo, ITT Population-Excluding Duplicate Patients",0.073
same,"Odds Ratio (adjusted), durable overall CSBM responders","[2]; Plecanatide 6 mg, All Randomized (includes Duplicate Patients)",0.571
same,"Odds Ratio (adjusted), durable overall CSBM responders","[2]; Plecanatide 6 mg, ITT Population",0.587
same,"Odds Ratio (adjusted), durable overall CSBM responders","[2]; Plecanatide 6 mg, ITT Population-Excluding Duplicate Patients",0.589
same,"Discontinuation before Week 12 (EOT), primary reason Insufficient Therapeutic Effect, (%)",[3]; 3 mg (N = 470),(0.6) %
same,"Discontinuation before Week 12 (EOT), primary reason Insufficient Therapeutic Effect, (%)",[3]; 6 mg (N = 471),(0.2) %
same,"Serious TEAE Infections and infestations, Reasonable Possibility: E events",[4]; 3 mg (N = 474),0
same,"Serious TEAE Infections and infestations, Reasonable Possibility: N patients",[4]; 3 mg (N = 474),0
same,Serious TEAE Infections and infestations: E events,[4]; 3 mg (N = 474),0
same,Serious TEAE Infections and infestations: N patients,[4]; 3 mg (N = 474),0
same,"Serious TEAE Infections and infestations, Reasonable Possibility: E events",[4]; 6 mg (N = 457),0
same,"Serious TEAE Infections and infestations, Reasonable Possibility: N patients",[4]; 6 mg (N = 457),0
same,Serious TEAE Infections and infestations: % patients,[4]; 6 mg (N = 457),(0.4) %
same,Serious TEAE Infections and infestations: E events,[4]; 6 mg (N = 457),2
same,Serious TEAE Infections and infestations: N patients,[4]; 6 mg (N = 457),2
